Where “and” joins values, the source holds several entries; their conditions need not be identical. Equal values may be shown once. Entries after “also recorded” stand apart in the source; their conditions may differ.
Experiments:
[1] = test system: soybean plants expressing the FMP23 HPPD protein; experiment: Greenhouse treatment of soybean events with tembotrione; assay type: in vivo; conditions: six FMP23 events; 100 g AI/ha, ten days after application
Protocol: (§1) Plants containing the transgene were then sprayed with HPPD inhibitor herbicides, as for example with tembotrione at a rate of 100 g Al/ha. Ten days after the application the symptoms due to the application of the herbicide were evaluated and compared to the symptoms observed on a wild type plants under the same conditions.
(§2) Concerning FMP22, one event expressing the FMP22 HPPD protein have been generated from the green shoots of above and were transferred to the greenhouse. Four weeks after acclimation, i.e. plants at a developmental stage of 3-4 internodes were treated with 100 g Al/ha tembotrione prepared from a WP 20 formulation supplemented with ammonium sulfate and methyl ester raps oil. Ten days after application, the symptoms caused by the application of the HPPD inhibitor herbicide were evaluated and compared to the symptoms observed on treated non-transgenic wild-type soybean plants. […] Concerning FMP23, six events expressing the FMP23 HPPD protein have been generated from the green shoots of above and were transferred to the greenhouse. […] Ten days after application, the symptoms caused by the application of the HPPD inhibitor herbicide were evaluated and compared to the symptoms observed on treated non-transgenic wild-type soybean plants.

[2] = test system: soybean plants expressing the FMP22 HPPD protein; experiment: as above; assay type: in vivo; conditions: one FMP22 event; 100 g AI/ha, ten days after application
Protocol: as §1, §2

[3] = test system: rice shoots containing FMP22e; experiment: Bleaching of rice shoots on MS/2 with tembotrione; assay type: cell-based; conditions: 2 weeks
Protocol: (§3) Rice transformation is achieved using methods well known in the art. Briefly, the Agrobacterium tumefaciens mediated transformation of rice was performed using immature embryos, from the restorer line 6G4317. Briefly, panicles from donor plants were harvested 8-12 days after pollination. The lemma of the immature seed was removed. Seeds were thereafter sterilized using a NaOCl based solution and Tween. The seeds were preinduced with […]. Agrobacterium tumefaciens cells are then co-cultivated with the preinduced seeds in presence of acetosyringone for 4 days at 24° C. in the dark. Thereafter, coleoptile from embryos are removed and washed, then put on a media supplemented with phosphinothricin for 3 weeks at 28° C. under a photoperiod rhythm of 16 hours. Then the growing calli were cut off from the embryos, and transferred to fresh media containing triacillin, phosphinothricin, L-proline and copper (II) sulfate.
(§4) For each callusline and per Tembotrione concentration, 3 shoots, and randomly isolated from different callus pieces, were transferred to MS/2 with Tembotrione. As a general rule, transfer of the shoots from regeneration medium to MS/2 occurred 9 weeks after calli had been put on regeneration medium.
(§5) Cultures were incubated at 26.5° C. (16 hrs. photoperiod) and evaluation of symptoms occurred 2 weeks later.
(§6) New developing leaves of the shoots transferred have been scored on the basis of bleaching and categorized in 3 groups:
(§7) Within the category ‘intermediate bleaching’ a distinction has been made between shoots having new leaves showing only very little bleaching symptoms and thus tending to green leaves, and shoots with new leaves almost completely bleached.

[4] = test system: rice shoots containing FMP23e; experiment: Bleaching of rice shoots on MS/2 with tembotrione; assay type: cell-based; conditions: 2 weeks
Protocol: as §3, §4, §5, §6, §7

[5] = test system: Rhodococcus HPPD SEQ ID No. 19 (FMP23e); experiment: biochemical; assay type: biochemical, Rhodococcus sp. (strain RHA1), isolate ro02040; conditions: SEQ ID No. 19
[6] = test system: tobacco plants containing FMP23e (HPPD FMP23); experiment: Glasshouse trial, herbicidal damage on T1 tobacco; assay type: in vivo, Nicotiana tabacum; conditions: 7 DAT, 100 g AI/ha spray; FMP23e line 188, single T1 plants
Protocol: T0 Tobacco plants containing either the gene from Arabidopsis coding for HPPD or the gene FMP22e from Rhodococcus sp. (strain RHA1), isolate ro03041 coding for FMP22 HPPD, or the gene FMP23e from Rhodococcus sp. (strain RHA1), isolate ro02040 mentioned above (Example 3), were transferred to the glasshouse (28/20° C.), to develop further and produce seeds. Those seeds were harvested and put on soil (ED73 mixed with sand and osmocote Pro) to germinate in the glasshouse (28/20° C.). Three to four weeks later, plantlets were transferred to single pots containing the soil mentioned above. Two weeks later, plants of a size 4-6 cm diameter were sprayed with either • tembotrione at 100 gAl/ha prepared from a WP20 (wettable powder 20%) formulation supplemented with ammonium sulfate and methyl ester raps oil, or • isoxaflutole at 100 gAl/ha prepared from a WP20 formulation supplemented with ammonium sulfate and methyl ester raps oil, or • bicyclopyrone at 100 gAl/ha prepared from a WP20 formulation supplemented with ammonium sulfate and methyl ester raps oil, or • “blind formulation” made from a WP20 formulation without active ingredient (Al) supplemented with ammonium sulfate and methyl ester raps oil, and were then transferred to a growth chamber with adequate light conditions (20000 Lux).

[7] = test system: T0 tobacco plants containing FMP23t; experiment: Response of T0 tobacco plants to tembotrione; assay type: in vivo, Nicotiana tabacum; conditions: 100 g AI/ha, two weeks after treatment
Protocol: (§8) As an example, rooted plants containing the T-DNA PromCaMV35S-OTP-HIS6-FMP22t-TerCaMV35S or containing the T-DNA PromCaMV35S-OTP-HIS6-FMP23t-TerCaMV35S, are transferred to the greenhouse under standard growth conditions. Following a period of acclimation of two weeks, the T0 plants are treated with a mixture containing 100 g tembotrione/ha prepared from a WP20 (wettable powder 20%) formulation supplemented with ammonium sulfate and methyl ester raps oil.
(§9) Two weeks after the treatment, the symptoms due to the application of the herbicides are evaluated. The plants are classified in four categories. The treated plants evaluated as “0” are looking like the untreated tobacco plants. The plants evaluated as “1” display temporarily light bleaching phenotype due to the application of the herbicides. The plants evaluated as “2” display permanent light to strong bleaching symptoms. Finally the plants evalutated as “3” are looking like wild type tobacco plants submitted to the same treatment.

[8] = test system: T0 tobacco plants containing FMP22t; experiment: Response of T0 tobacco plants to tembotrione; assay type: in vivo, Nicotiana tabacum; conditions: 100 g AI/ha, two weeks after treatment
Protocol: as §8, §9

Compound: CS(=O)(=O)c1ccc(C(=O)C2C(=O)CCCC2=O)c(Cl)c1COCC(F)(F)F [Tembotrione, 2-[2-chloro-4-(methylsulfonyl)-3-[(2,2,2,-tri-fluoroethoxy)methyl]benzoyl]-1,3-cyclo-hexanedione]
- symptoms caused by the herbicide [1]: One of the six events didn't show any bleaching phenotype; also recorded: One event showed transitory light bleaching symptoms but recovered 14 days after tembotrione application; also recorded: remaining four events exhibited the bleaching like non-transgenic wild-type soybean plant
- symptoms caused by the herbicide [2]: transitory light bleaching symptoms but recovered 14 days after tembotrione application
- N° of shoots completely bleached ([3]; 1 μM): 14
- N° of shoots with intermediate bleaching ([3]; 1 μM): 9
- N° of shoots without bleaching ([3]; 1 μM): 35
- N° of shoots completely bleached ([3]; 5 μM): 16
- N° of shoots with intermediate bleaching ([3]; 5 μM): 38
- N° of shoots without bleaching ([3]; 5 μM): 6
- N° of shoots completely bleached ([4]; 1 μM): 14
- N° of shoots with intermediate bleaching ([4]; 1 μM): 5
- N° of shoots without bleaching ([4]; 1 μM): 39
- N° of shoots completely bleached ([4]; 5 μM): 25
- N° of shoots with intermediate bleaching ([4]; 5 μM): 20
- pI50 ([5]; 2 mM HPP, 3 minutes incubation): 5.1
- percentage of inhibition compared to activity in absence of the inhibitor ([5]; 5.0 × 10^−6 M inhibitor): 70%
- % injury [6]: 0% and 5%
- number of plants in category 0 (looking like untreated tobacco plants) [7]: 5
- number of plants in category 3 (like treated wild type tobacco plants) [7]: 4
- number of plants in category 0 (looking like untreated tobacco plants) [8]: 4
- number of plants in category 1 (temporarily light bleaching) [8]: 2
- number of plants in category 2 (permanent light to strong bleaching) [8]: 5
- number of plants in category 3 (like treated wild type tobacco plants) [8]: 3
